From patent publication US11999676B2, “Vesicular monoamine transporter-2 ligands and their use in the treatment of psychostimulant abuse” (priority 2016, dated 2024)
Read-outs that look alike come from different tables or passages of the source.

Experiments:
in vitro [1] = details: both, human, microsomes, pH 7.4, Microsomal stability assays: Clearance
Protocol: (§1) Each plate holds triplicate samples of two controls (0.4 mM) and up to 14 compounds (0.08 mM) in rat and human liver microsomes. Aliquots of each well of the plate (175 μl of each well) were transferred from the master plate into 5 assay plates. For 0-hr time point, pre-cooled (4° C.) internal standard (437.5 μL, 2 μM caffeine in methanol) was added to the first plate before the reaction starts. NADPH regenerating system solution A (6.05 ml, Fisher Scientific, #NC9255727) was combined with NADPH regenerating system solution B (1.21 ml, Fisher Scientific, #NC9016235) in potassium phosphate buffer (15.8 ml, 0.1 M, pH 7.4, 37° C.). The resulting NADPH solution (43.8 μl) was added to each well of all the 96-well assay plates and mixed with pipette briefly making the final protein and compound concentrations respectively: 0.5 mg/ml, 0.08 μM (0.4 μM for controls). Plates were sealed, and all plates except the 0-hr plate were incubated at 37° C., shaken at a speed of 60 rpm. A single assay plate was tested at each time point: 0.5 hr, 1 hr, 2 hr, and 4 hr. At each time point, 437.5 μL of pre-cooled internal standard was added each well of the plate to quench the reaction. […] 120 μl supernatant was transferred to a 96-well plate, centrifuged again and analyzed by UPLC-MS (Waters Inc., Milford, MA). The compounds and internal standard were detected by selected ion recording (SIR).
(§2) The amount of material was measured as a ratio of peak area to the internal standard and graphed. Using the slope from the initial linear portion of this curve, the degradation rate constant is calculated using equation [1].

[2] = Microsomal stability assay, human liver microsomes; details: for half-life at 0.08 µM: both, human, pH 7.4, Microsomal stability assays: Half-life
Protocol: as §1, §2

VMAT2 [3] = molecular target: T1, VMAT2 (Rattus norvegicus (Rat), UniProt Q01827); details: rat brain synaptic vesicles; read-out: [3H]DTBZ binding (Ki) VMAT2
VMAT2 [4] = molecular target: T1, VMAT2; assay: [3H]Dopamine ([3H]DA) uptake assay, vesicular preparation; format: biochemical
hERG channel = hERG channel (Homo sapiens (Human), UniProt Q12809); assay: [3H]Dofetilide binding assay, HEK-293 cell membrane preparation
Chain of hERG channel (Q12809 whole entry): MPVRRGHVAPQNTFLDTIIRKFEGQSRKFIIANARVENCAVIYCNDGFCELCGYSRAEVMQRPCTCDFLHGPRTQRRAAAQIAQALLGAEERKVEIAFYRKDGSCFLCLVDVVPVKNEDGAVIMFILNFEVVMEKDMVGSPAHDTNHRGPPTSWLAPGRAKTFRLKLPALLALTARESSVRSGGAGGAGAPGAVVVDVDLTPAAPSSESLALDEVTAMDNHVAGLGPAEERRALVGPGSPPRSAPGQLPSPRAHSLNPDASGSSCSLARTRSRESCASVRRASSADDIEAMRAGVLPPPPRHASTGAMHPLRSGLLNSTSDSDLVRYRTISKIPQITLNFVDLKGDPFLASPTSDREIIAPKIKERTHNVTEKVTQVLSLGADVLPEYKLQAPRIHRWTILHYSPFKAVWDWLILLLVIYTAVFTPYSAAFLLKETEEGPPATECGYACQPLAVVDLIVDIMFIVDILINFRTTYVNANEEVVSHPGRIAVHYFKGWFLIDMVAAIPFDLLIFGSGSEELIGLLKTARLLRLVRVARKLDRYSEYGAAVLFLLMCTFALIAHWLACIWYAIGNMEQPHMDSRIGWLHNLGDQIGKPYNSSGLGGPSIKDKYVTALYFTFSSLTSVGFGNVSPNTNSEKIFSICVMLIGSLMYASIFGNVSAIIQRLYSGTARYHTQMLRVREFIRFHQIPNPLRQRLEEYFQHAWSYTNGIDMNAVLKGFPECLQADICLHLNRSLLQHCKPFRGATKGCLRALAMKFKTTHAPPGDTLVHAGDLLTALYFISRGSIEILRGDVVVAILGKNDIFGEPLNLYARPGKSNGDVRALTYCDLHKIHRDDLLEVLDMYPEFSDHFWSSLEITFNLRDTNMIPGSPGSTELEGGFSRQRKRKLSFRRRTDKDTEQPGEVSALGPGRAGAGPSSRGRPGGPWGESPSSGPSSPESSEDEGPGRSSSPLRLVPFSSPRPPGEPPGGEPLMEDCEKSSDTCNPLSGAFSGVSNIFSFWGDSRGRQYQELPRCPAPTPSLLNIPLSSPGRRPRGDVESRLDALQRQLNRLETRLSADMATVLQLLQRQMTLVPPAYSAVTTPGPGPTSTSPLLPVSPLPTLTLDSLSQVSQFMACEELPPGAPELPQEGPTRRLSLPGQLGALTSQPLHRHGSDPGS

in vitro [5] = details: female, Sprague-Dawley, rat, microsomes, pH 7.4, Microsomal stability assays: Clearance
Protocol: as §1, §2

[6] = Microsomal stability assay, rat liver microsomes; details: female, Sprague-Dawley, rat, pH 7.4, Microsomal stability assays: Half-life
Protocol: as §1, §2

[7] = rat striatal synaptic vesicles, read-out: [3H]DA uptake (Ki) VMAT2
[8] = [3H]DA uptake, rat, read-out: VMAT2 (rat) Inhibition: Mean Ki ± Standard Deviation
[9] = [3H]dofetilide, HEK-293 cell membranes, read-out: hERG Binding: Mean Ki ± Standard Deviation

Row | Structure (SMILES) | Ki (VMAT2 [3]) [nM] | Ki (VMAT2 [4]; [7]) [nM] | further results
1 | FCC(Cc1ccc(F)cc1)NCCCc1ccncc1 (stereo not drawn) [Compound 143] | – | – | CLint scaled at 0.08 µM (in vitro [1]): 98.1 mL/min/kg; half-life at 0.08 µM ([2]; pooled liver microsomes): 30 min
2 | COc1ccc(CC(C)NCCCc2ccccc2)cc1 (stereo not drawn) [Compound 26] | 1270 ± 90 | 22 ± 3 | –
3 | COc1ccc(CC(C)N(C)CCCc2ccccc2)cc1 (stereo not drawn) [Compound 30] | 7110 ± 820 | 270 ± 38 | –
4 | CC(Cc1ccc(NC=O)cc1)N(C=O)CCCc1ccccc1 (stereo not drawn) [Compound 75] | – | – | Ki (VMAT2 [4]; [8]): 22700 ± 432 nM; CLint scaled at 0.08 µM (in vitro [1]): 121 mL/min/kg; half-life at 0.08 µM ([2]; pooled liver microsomes): 12 min
5 | CC(Cc1ccccc1)NCCCCCc1ccccc1 (stereo not drawn) [Compound 17] | 630 | 14 ± 1 | –
6 | CC(Cc1ccccc1)NCCc1ccc(O)c(O)c1 (stereo not drawn) [Compound 23] | 3400 ± 600 | 92 ± 17 | –
7 | COc1ccc(CCNC(C)CCc2ccc(OC)cc2)cc1 (stereo not drawn) [Compound 33] | 1500 ± 200 | 60 ± 7 | –
8 | CC(Cc1ccccc1)NCCc1ccc(OCc2ccccc2)c(OCc2ccccc2)c1 (stereo not drawn) [Compound 22] | 2000 ± 100 | 120 ± 1 | –
9 | FCC(Cc1ccc(-c2cccnc2)cc1)NCCCc1ccc(F)cc1 (stereo not drawn) [Compound 84] | – | – | CLint scaled at 0.08 µM (in vitro [1]): 173 mL/min/kg; Microsomal stability assays: Half-life [2]: 6 min
10 | O=CNc1ccc(CC(CF)NCCCc2ccc(F)cc2)cc1 (stereo not drawn) [Compound 72] | – | – | Ki (VMAT2 [4]; [8]): 16.4 ± 2.89 nM; Ki (hERG channel; [9]): 516 ± 63.6 nM; CLint scaled at 0.08 µM (in vitro [1]): 26.5 mL/min/kg; half-life at 0.08 µM ([2]; pooled liver microsomes): 48 min
11 | CC(Cc1ccc(F)cc1)NCCc1ccccc1 (stereo not drawn) [Compound 38] | 2500 ± 1600 | 69 ± 9 | –
12 | CC(Cc1ccc(Br)cc1)NCCc1ccccc1 (stereo not drawn) [Compound 3] | 1230 ± 130 | 33 ± 7 | –
13 | O=[N+]([O-])c1ccc(CCCNC(CF)Cc2ccc(F)cc2)cc1 (stereo not drawn) [Compound 123] | – | – | Ki (hERG channel): 223 ± 199 nM; CLint scaled at 0.08 µM (in vitro [1]): 18.1 mL/min/kg; half-life at 0.08 µM ([2]; pooled human liver microsomes): 72 min
14 | COc1ccc(CCCNC(C)CCc2ccccc2)cc1 (stereo not drawn) [Compound 52] | 3200 ± 100 | 26 ± 2 | –
15 | CC(CCc1ccccc1)NCCc1ccccc1 (stereo not drawn) [Compound 48] | 1600 ± 330 | 50 ± 4 | –
16 | OCC(Cc1ccc(F)cc1)NCCCn1cccn1 (stereo not drawn) [Compound 131] | – | – | CLint scaled at 0.08 µM (in vitro [5]): 139 mL/min/kg; half-life at 0.08 µM ([6]; liver microsomes): 18 min
17 | CC(Cc1ccccc1)NCCc1ccc(O)cc1 (stereo not drawn) [Compound 21] | 1500 ± 200 | 120 ± 10 | –
18 | COc1ccc(CCCNC(C)Cc2ccc(OC)cc2)cc1 (stereo not drawn) [Compound 29] | 410 ± 140 | 11 ± 2 | –
19 | COc1ccc(CCC(C)NCCCc2ccccc2)cc1 (stereo not drawn) [Compound 32] | 4700 ± 400 | 30 ± 2 | –
20 | OCC(Cc1ccc(F)cc1)NCCCn1cccn1 (stereo not drawn) [Compound 130] | – | – | Ki (VMAT2 [4]; [8]): 634 ± 195 nM; CLint scaled at 0.08 µM (in vitro [1]): 37.3 mL/min/kg; half-life at 0.08 µM ([2]; pooled liver microsomes): 36 min

Row | Structure (SMILES) | Ki (VMAT2 [3]) [nM] | Ki (VMAT2 [4]; [7]) [nM] | further results
21 | C[C@H](Cc1ccccc1)NCCCc1ccccc1 [Compound 5] | 910 ± 590 | 6 ± 1 | –
22 | CC(Cc1ccc(N)cc1)NCCCc1ccccc1 (stereo not drawn) [Compound 45] | 2800 ± 700 | 36 ± 3 | –
23 | CC(Cc1ccccc1)NCCCCc1ccccc1 (stereo not drawn) [Compound 15] | 190 ± 20 | 3 ± 2 | –
24 | CC(Cc1ccc(F)cc1)NCCCc1ccccc1 (stereo not drawn) [Compound 39] | 1300 ± 300 | 10 ± 0.2 | –
25 | COc1ccc(CCCNC(C)Cc2ccccc2)cc1 (stereo not drawn) [Compound 8] | 2200 ± 110 | 14 ± 3 | –
26 | CC(Cc1ccccc1)NCCc1ccccc1 (stereo not drawn) [Compound 1] | 7700 ± 1250 | 63 ± 5 | –
27 | FCC(Cc1ccc(-c2cncnc2)cc1)NCCCc1ccc(F)cc1 (stereo not drawn) [Compound 68] | – | – | Ki (VMAT2 [4]; [8]): 5.53 ± 0.567 nM; Ki (hERG channel; [9]): 633 ± 46.3 nM; CLint scaled at 0.08 µM (in vitro [1]): > 400 mL/min/kg; half-life at 0.08 µM ([2]; pooled liver microsomes): < 6 min
28 | CC(Cc1ccccc1)N(C)CCc1ccccc1 (stereo not drawn) [Compound 2] | 7530 ± 2160 | 510 ± 100 | –
29 | OCC(Cc1ccc(F)cc1)NCCCc1ccc(Br)cc1 (stereo not drawn) [Compound 154] | – | – | Ki (VMAT2 [4]; [8]): 69.1 ± 13.6 nM; CLint scaled at 0.08 µM (in vitro [1]): < 5.2 mL/min/kg; half-life at 0.08 µM ([2]; pooled liver microsomes): > 240 min
30 | COc1ccc(CCC(C)NCCc2ccc(Br)cc2)cc1 (stereo not drawn) [Compound 34] | 870 ± 30 | 10 ± 4 | –
31 | CC(Cc1ccc(Br)cc1)NCCCCc1ccccc1 (stereo not drawn) [Compound 14] | 81 ± 16 | 3 ± 0.3 | –
32 | COc1ccc(CC(C)NCCCc2ccccc2)cc1OC (stereo not drawn) [Compound 46] | 3800 ± 100 | 140 ± 13 | –
33 | COc1ccc(CCC(C)NCCc2ccccc2)cc1 (stereo not drawn) [Compound 31] | 2400 ± 100 | 62 ± 29 | –
34 | COc1ccc(CCCNC(C)Cc2ccc([N+](=O)[O-])cc2)cc1 (stereo not drawn) [Compound 43] | 1400 ± 400 | 8 ± 2 | –
35 | COc1ccc(CCCNC(C)CCc2ccc(OC)cc2)cc1 (stereo not drawn) [Compound 53] | 1500 ± 700 | 24 ± 6 | –
36 | CC(Cc1ccccc1)N(C)CCCc1ccccc1 (stereo not drawn) [Compound 7] | 1560 ± 470 | 96 ± 10 | –
37 | FCC(Cc1ccc(F)cc1)NCCCc1ccnc2ccccc12 (stereo not drawn) [Compound 149] | – | – | CLint scaled at 0.08 µM (in vitro [1]): 162 mL/min/kg; Microsomal stability assays: Half-life [2]: 6 min
38 | O=[N+]([O-])c1ccc(CCCNC(CF)Cc2ccc(F)cc2)cc1 (stereo not drawn) [Compound 124] | – | – | CLint scaled at 0.08 µM (in vitro [5]): 116 mL/min/kg; half-life at 0.08 µM ([6]; rat liver microsomes): 24 min
39 | CC(Cc1ccc([N+](=O)[O-])cc1)NCCc1ccccc1 (stereo not drawn) [Compound 41] | 5100 ± 1200 | 60 ± 7 | –
40 | CC(Cc1ccc(N)cc1)NCCc1ccccc1 (stereo not drawn) [Compound 44] | 17000 | 210 ± 80 | –

Row | Structure (SMILES) | Ki (VMAT2 [3]) [nM] | Ki (VMAT2 [4]; [7]) [nM] | further results
41 | CC(Cc1ccc(Br)cc1)NCCCc1ccccc1 (stereo not drawn) [Compound 11] | 700 ± 63 | 8 ± 1 | –
42 | CC(Cc1ccc(O)cc1)NCCCc1ccccc1 (stereo not drawn) [Compound 37] | 820 ± 270 | 33 ± 8 | –
43 | CC(CCc1ccccc1)N(C)CCCc1ccccc1 (stereo not drawn) [Compound 51] | 17200 ± 6330 | 360 ± 34 | –
44 | OCC(Cc1ccc(F)cc1)NCCCc1ccncc1 (stereo not drawn) [Compound 129] | – | – | CLint scaled at 0.08 µM (in vitro [1]): < 5.2 mL/min/kg; half-life at 0.08 µM ([2]; pooled liver microsomes): > 240 min
45 | OCC(Cc1ccc(F)cc1)NCCCc1ccc(Br)cc1 (stereo not drawn) [Compound 155] | – | – | CLint scaled at 0.08 µM (in vitro [5]): > 450 mL/min/kg; half-life at 0.08 µM ([6]; liver microsomes): < 6 min
46 | Nc1ccc(CC(CF)NCCCc2ccc(F)cc2)cc1 (stereo not drawn) [Compound 80, [N-3-(4-fluorophenyl)-propan-1-yl]-3-(4-aminophenyl)-1-fluoro-2-propylamine] | – | – | CLint scaled at 0.08 µM (in vitro [1]): 29.5 mL/min/kg; half-life at 0.08 µM ([2]; pooled liver microsomes): 42 min
47 | COc1ccc(CC(C)NCCc2ccccc2)cc1 (stereo not drawn) [Compound 24] | 3770 ± 990 | 74 ± 2 | –
48 | FCC(Cc1ccc(-c2cncnc2)cc1)NCCCc1ccc(F)cc1 (stereo not drawn) [Compound 69] | – | – | CLint scaled at 0.08 µM (in vitro [5]): 76.8 mL/min/kg; half-life at 0.08 µM ([6]; liver microsomes): 36 min
49 | CC(CCc1ccccc1)N(C)CCc1ccccc1 (stereo not drawn) [Compound 49] | 29800 ± 11200 | 84 ± 4 | –
50 | O=CNc1ccc(CC(CF)NCCCc2ccc(F)cc2)cc1 (stereo not drawn) [Compound 73] | – | – | CLint scaled at 0.08 µM (in vitro [5]): 43.7 mL/min/kg; half-life at 0.08 µM ([6]; liver microsomes): 66 min
51 | CC(Cc1ccccc1)NCCCc1ccccc1 (stereo not drawn) [Compound 4] | 1130 ± 310 | 7 ± 2 | –
52 | CC(Cc1ccc(Br)cc1)NCCOc1ccccc1 (stereo not drawn) [Compound 20] | 2000 ± 100 | 13 ± 9 | –
53 | COc1ccc(CC(C)N(C)CCc2ccccc2)cc1 (stereo not drawn) [Compound 25] | 11900 ± 1840 | 460 ± 75 | –
54 | COc1ccc(CCCNC(C)Cc2ccc(F)cc2)cc1 (stereo not drawn) [Compound 40] | 1700 ± 400 | 17 ± 3 | –
55 | Fc1ccc(CCCNC(Cc2ccc(F)cc2)C(F)F)cc1 (stereo not drawn) [Compound 82] | – | – | CLint scaled at 0.08 µM (in vitro [1]): 26.3 mL/min/kg; half-life at 0.08 µM ([2]; pooled liver microsomes): 48 min
56 | CC(Cc1ccc(O)cc1)NCCc1ccccc1 (stereo not drawn) [Compound 35] | 2600 ± 400 | 47 ± 6 | –
57 | CC(Cc1ccc(NC=O)cc1)N(C=O)CCCc1ccccc1 (stereo not drawn) [Compound 76] | – | – | CLint scaled at 0.08 µM (in vitro [5]): 56 mL/min/kg; half-life at 0.08 µM ([6]; liver microsomes): 48 min
58 | CC(CCc1ccccc1)NCCCc1ccccc1 (stereo not drawn) [Compound 50] | 4810 ± 1130 | 50 ± 12 | –
59 | COc1ccc(CCCNC(C)Cc2ccc(Br)cc2)cc1 (stereo not drawn) [Compound 16] | 460 ± 80 | 12 ± 3 | –
